In PMC3020970, “K70Q Adds High-Level Tenofovir Resistance to “Q151M Complex” HIV Reverse Transcriptase through the Enhanced Discrimination Mechanism” (PLoS ONE, 2011):
Where “and” joins values, the source holds several entries; their conditions need not be identical. Equal entries are not always repeated.

Tests used:
[1] = test system: HIV-1 clinical isolate 2 (Q151Mc + K70Q); assay: Single-cycle drug susceptibility assay (MAGIC-5 cells), clinical isolate 2; format: cell-based; conditions: Human immunodeficiency virus 1; clinical isolate 2, MAGIC-5 cells
Method: (§1) HIV was isolated from fresh plasma immediately after collection of clinical samples from study participants at the outpatient clinic of the AIDS Clinical Center (ACC), International Medical Center of Japan. The Institutional Review Board approved this study (IMCJ-H13-80) and a written consent was obtained from all participants.
(§2) Susceptibilities to various RT inhibitors were determined using the MAGIC-5 cells which are HeLa cells stably transfected with a β-galactosidase gene under the control of an HIV long terminal repeat promoter, and with vectors that express the CD4 receptor and the CCR5 co-receptor under the control of the CMV promoter as described previously. Briefly, MAGIC-5 cells were infected with diluted virus stock (100 blue forming units) in the presence of increasing concentrations of RT inhibitors, cultured for 48 h, fixed, and stained with X-Gal (5-bromo-4-chloro-3-indolyl-β-D-galacto-pyranoside). The stained cells were counted under a light microscope.

[2] = test system: HIV-1 WT; assay: Single-cycle drug susceptibility assay (MAGIC-5 cells), recombinant WT clone; format: cell-based; conditions: Human immunodeficiency virus 1, Table S2
Method: (§3) The NL4-3-based molecular clone was constructed by replacing the pol-coding region with the HIV-1 BH10 strain. […] Each molecular clone was transfected into COS-7 cells. Cells were grown for 48 h, and culture supernatants were harvested and stored at −80°C until use.
as §2

[3] = test system: HIV-1 NL4-3 strain (WT); assay: microbe, parasite or virus in culture; format: cell-based; conditions: Human immunodeficiency virus 1, NL43; WT, MAGIC-5 cells, Table S1; read-out: EC50
Method: as §2

[4] = test system: HIV-1 Q151Mc/K70E; assay: Single-cycle drug susceptibility assay (MAGIC-5 cells); format: cell-based
Method: as §3, §2

[5] = test system: HIV-1 Q151Mc/K70N; assay: as above; format: cell-based
Method: as §3, §2

[6] = test system: HIV-1 K70T; assay: as above; format: cell-based
Method: as §3, §2

[7] = test system: HIV-1 K70Q; assay: as above; format: cell-based
Method: as §3, §2

[8] = test system: HIV-1 K70N; assay: as above; format: cell-based
Method: as §3, §2

[9] = test system: HIV-1 K70G; assay: as above; format: cell-based
Method: as §3, §2

[10] = test system: HIV-1 Q151Mc/K70R; assay: as above; format: cell-based
Method: as §3, §2

[11] = test system: HIV-1 K70R; assay: as above; format: cell-based
Method: as §3, §2

[12] = test system: HIV-1 Q151Mc; assay: as above; format: cell-based; conditions: Human immunodeficiency virus 1, MAGIC-5
Method: as §3, §2

[13] = test system: HIV-1 Q151Mc/K70G; assay: as above; format: cell-based; conditions: Human immunodeficiency virus 1, MAGIC-5; Q151Mc/K70G
Method: as §3, §2

[14] = test system: HIV-1 K70E; assay: as above; format: cell-based
Method: as §3, §2

[15] = test system: HIV-1 Q151Mc/K70Q; assay: as above; format: cell-based; conditions: Human immunodeficiency virus 1, MAGIC-5; Q151Mc/K70Q
Method: as §3, §2

[16] = test system: HIV-1 Q151Mc/K70T; assay: as above; format: cell-based
Method: as §3, §2

[17] = test system: HIV-1 clinical isolate 1 (Q151Mc-containing); assay: Single-cycle drug susceptibility assay (MAGIC-5 cells), clinical isolate 1; format: cell-based; conditions: Human immunodeficiency virus 1; clinical isolate 1, MAGIC-5 cells
Method: as §1, §2

[18] = molecular target: T1, HIV-1 RT WT (Human immunodeficiency virus type 1 group M subtype B, UniProt P03366); assay: Pre-steady state kinetics of binding and incorporation; format: biochemical
T1 construct: made in house; host or cells: Escherichia coli BL21
Method: (§4) Determination of active site concentrations in the different preparations of WT and mutant RTs were performed using pre-steady state burst experiments. […] The reactions were quenched at various times (10 ms to 5 s) by adding EDTA to a final concentration of 50 mM. The amounts of product (P18-dAMP) were quantitated and fit to the following burst equation: [drawing 1] (1) where A is the amplitude of the burst phase that represents the RT-DNA complex at the start of the reaction, k obs is the observed burst rate constant for dNTP incorporation, k ss is the steady state rate constant, and t is the reaction time. The rate constant of the linear phase (kcat) can be estimated by dividing the slope of the linear phase by the enzyme concentration. The active site concentration and template/primer binding affinity (KD-DNA) were determined by plotting the amplitude (A) against the concentration of template/primer. The data were fit using non-linear regression to a quadratic equation: [drawing 2] (2) where KD is the dissociation constant for the RT-DNA complex, and [RT] is the concentration of active polymerase molecules. Subsequent biochemical experiments were performed using corrected active site concentrations, [43].
(§5) HIV-1 RT (50 nM active sites) was pre-incubated with 50 nM T31/P18 in one syringe (Syringe A), whereas varying concentrations of dNTP and 10 mM MgCl2 were kept in another syringe (Syringe B). The solutions were rapidly mixed to initiate reactions, which were subsequently quenched at various times (5 ms to 10 s) by adding EDTA to a final concentration of 50 mM. The products from each quenched reaction were resolved, quantitated, and plotted as described above. The data were fit by non-linear regression to the burst equation (Eq 1).
(§6) To obtain the dissociation constant KD-dNTP for dNTP binding to the RT-DNA complex, the observed burst rates (kobs) were fit to the hyperbolic equation (Eq. 3) using nonlinear regression: [drawing 3] (3) where kpol is the optimal rate of dNTP incorporation.
(§7) The kinetics of TFV incorporation by the WT and mutant enzymes were carried out in a manner similar to that employed for natural dNTP substrate except the time of reactions. It was noted that the mutant enzymes required longer time to incorporate TFV compared to the WT HIV-1 RT (detailed in the Results section).

[19] = molecular target: T2, HIV-1 RT Q151Mc (Human immunodeficiency virus type 1 group M subtype B, UniProt P03366, A661V/F676L/F715Y/Q750M/V674I); assay: as above; format: biochemical
T2 construct: made in house; host or cells: Escherichia coli BL21
Method: as §4, §5, §6, §7

[20] = molecular target: T3, HIV-1 RT K70Q/Q151Mc (Human immunodeficiency virus type 1 group M subtype B, UniProt P03366, A661V/F676L/F715Y/K669Q/Q750M/V674I); assay: as above; format: biochemical; conditions: K70Q/Q151Mc RT
T3 construct: made in house; host or cells: Escherichia coli BL21
Method: as §4, §5, §6, §7

[21] = molecular target: T4, HIV-1 RT K70Q (Human immunodeficiency virus type 1 group M subtype B, UniProt P03366, K669Q); assay: as above; format: biochemical; conditions: K70Q RT
T4 construct: made in house; host or cells: Escherichia coli BL21
Method: The reactions were quenched at various times (10 ms to 5 s) by adding EDTA to a final concentration of 50 mM. The amounts of product (P18-dAMP) were quantitated and fit to the following burst equation: [drawing 1] (1) where A is the amplitude of the burst phase that represents the RT-DNA complex at the start of the reaction, k obs is the observed burst rate constant for dNTP incorporation, k ss is the steady state rate constant, and t is the reaction time. The rate constant of the linear phase (kcat) can be estimated by dividing the slope of the linear phase by the enzyme concentration. The active site concentration and template/primer binding affinity (KD-DNA) were determined by plotting the amplitude (A) against the concentration of template/primer. The data were fit using non-linear regression to a quadratic equation: [drawing 2] (2) where KD is the dissociation constant for the RT-DNA complex, and [RT] is the concentration of active polymerase molecules. Subsequent biochemical experiments were performed using corrected active site concentrations, [43].
as §5, §6

Question: How did the EC50 [1] turn out when `Cc1cn([C@H]2C=C[C@@H](CO)O2)c(=O)[nH]c1=O` [d4T, stavudine] was run?
Answer: > 100 µM

Question: And the EC50 [2]?
Answer: 2.6 ± 0.23 µM

Question: And the EC50 [3]?
Answer: 2 ± 0.55 µM

Question: And the EC50 ([4]; Human immunodeficiency virus 1, MAGIC-5, Q151Mc/K70E)?
Answer: 32 ± 3.6 µM

Question: What about the “Fold increase in EC50 compared to HIV-1 Q151Mc” value (“Fold increase … to HIV-1 Q151Mc” below) ([4]; Q151Mc/K70E vs Q151Mc) of the same compound?
Answer: (1.3) fold

Question: And the EC50 ([5]; Human immunodeficiency virus 1, MAGIC-5, Q151Mc/K70N)?
Answer: 25 ± 4 µM

Question: What about the “Fold increase … to HIV-1 Q151Mc” value ([5]; Q151Mc/K70N vs Q151Mc) of the same compound?
Answer: (1) fold

Question: And the EC50 ([6]; Human immunodeficiency virus 1, MAGIC-5, K70T)?
Answer: 2.2 ± 0.17 µM

Question: What about the “Fold increase in EC50 compared to HIV-1 WT” value (“Fold increase … to HIV-1 WT” for short) ([6]; K70T vs WT) of the same compound?
Answer: (0.8) fold

Question: And the EC50 ([7]; Human immunodeficiency virus 1, MAGIC-5, K70Q)?
Answer: 3 ± 0.21 µM

Question: What about the “Fold increase … to HIV-1 WT” value ([7]; K70Q vs WT) of the same compound?
Answer: (1.2) fold

Question: What about the EC50 ([8]; Human immunodeficiency virus 1, MAGIC-5, K70N) of the same compound?
Answer: 3.4 ± 0.25 µM

Question: And the “Fold increase … to HIV-1 WT” value ([8]; K70N vs WT)?
Answer: (1.3) fold

Question: And the EC50 ([9]; Human immunodeficiency virus 1, MAGIC-5, K70G)?
Answer: 4.3 ± 0.26 µM

Question: And the “Fold increase … to HIV-1 WT” value ([9]; K70G vs WT)?
Answer: (1.7) fold

Question: And the EC50 ([10]; Human immunodeficiency virus 1, MAGIC-5, Q151Mc/K70R)?
Answer: 44 ± 4.5 µM

Question: And the “Fold increase … to HIV-1 Q151Mc” value ([10]; Q151Mc/K70R vs Q151Mc)?
Answer: (1.8) fold

Question: What about the EC50 ([11]; Human immunodeficiency virus 1, MAGIC-5, K70R) of the same compound?
Answer: 4.3 ± 0.57 µM

Question: What about the “Fold increase … to HIV-1 WT” value ([11]; K70R vs WT) of the same compound?
Answer: (1.7) fold

Question: And the EC50 [12]?
Answer: 25 ± 2.3 µM

Question: And the EC50 [13]?
Answer: 115 ± 5.1 µM

Question: And the EC50 ([14]; Human immunodeficiency virus 1, MAGIC-5, K70E)?
Answer: 16 ± 2.7 µM

Question: What about the “Fold increase … to HIV-1 WT” value ([14]; K70E vs WT) of the same compound?
Answer: (6.2) fold

Question: What about the EC50 [15] of the same compound?
Answer: 110 ± 6.6 µM

Question: What about the EC50 ([16]; Human immunodeficiency virus 1, MAGIC-5, Q151Mc/K70T) of the same compound?
Answer: 16 ± 2.7 µM

Question: What about the “Fold increase … to HIV-1 Q151Mc” value ([16]; Q151Mc/K70T vs Q151Mc) of the same compound?
Answer: (0.6) fold

Question: And the EC50 [17]?
Answer: 18.3 ± 1.53 µM

Question: With `Nc1ncnc2c1ncn2[C@H]1C[C@H](O)[C@@H](COP(=O)(O)OP(=O)(O)OP(=O)(O)O)O1` [dATP] as the compound, how does the “k pol/Kd” value [18] read?
Answer: 2.4e+06 M⁻¹ s⁻¹ and 2.4e+06 ± 200000 M⁻¹ s⁻¹

Question: And the k pol ([18]; T31/P18, 37°C)?
Answer: 6.3 s⁻¹ and 6.3 ± 0.5 s⁻¹

Question: What about the Kd ([18]; binding to RT-DNA complex) of the same compound?
Answer: 2.6 ± 0.1 µM

Question: What about the “k pol/Kd” value [19] of the same compound?
Answer: 3.3e+06 M⁻¹ s⁻¹ and 3.3e+06 ± 300000 M⁻¹ s⁻¹

Question: And the k pol ([19]; T31/P18, 37°C)?
Answer: 17.9 s⁻¹ and 17.9 ± 0.4 s⁻¹

Question: And the Kd ([19]; binding to RT-DNA complex)?
Answer: 5.4 ± 0.5 µM

Question: What about the “k pol/Kd” value [20] of the same compound?
Answer: 2.9e+06 M⁻¹ s⁻¹ and 2.9e+06 ± 300000 M⁻¹ s⁻¹

Question: What about the k pol ([20]; T31/P18, 37°C) of the same compound?
Answer: 14.6 s⁻¹ and 14.6 ± 1.6 s⁻¹

Question: And the Kd ([20]; binding to RT-DNA complex)?
Answer: 5 ± 0.07 µM

Question: What about the k pol ([21]; T31/P18, 37°C) of the same compound?
Answer: 8.4 ± 0.4 s⁻¹

Question: And the Kd ([21]; binding to RT-DNA complex)?
Answer: 3.8 ± 0.6 µM
